Experimental data published in patent publication US11357971B2, “Ion pump with hyperbranched polymers” (OBOE IPR AB, priority 2016, dated 2022).

Columns and labels:
[1] = system: DII-Venus auxin-response reporter; assay: DII-Venus fluorescent auxin-response reporter seedlings, OEIP delivery; type: in vivo, Arabidopsis thaliana; conditions: for effect on DII-Venus fluorescence intensity: OEIP delivery to root tip, signal falls in presence of auxin
Excerpt: The DII-Venus reporter is characterized by absence or reduction in fluorescent signal intensity in the presence of auxin or increasing auxin levels, respectively. Conversely, in DR5, the presence or gain of fluorescent signal intensity indicates presence or increase of auxin concentrations, respectively. The relative auxin abundance is visualized faster by DII-Venus than by DR5^15, because the DII-Venus signal relies on a protein degradation mechanism rather than the slower transcriptional and translational production mechanisms of DR5.
Using DII-Venus seedlings, the fluorescent signal intensity was monitored and onset of strong fluorescence reduction was observed between 30 to 60 min (FIG. 5a,b).
To this end, seeds of both genotypes and wild-type Col-0 were surface sterilized with 70% ethanol for 1 min, incubated in pool cleaner (Biltema, Sweden; one tablet per 2000 ml H2O) for 12 min, and washed four times with sterile, distilled water (dH2O). After 3 days at 4° C. in the dark, seeds were plated and grown on ½ Murashige and Skoog (MS) (Duchefa Biochemie, Haarlem, The Netherlands), 0.5 g/L 2-(N-morpholino)ethanesulfonic acid (MES, Sigma-Aldrich), 1% sucrose, 0.7% plant agar (Duchefa) growth medium plates (120×120 mm square petri-dishes; Gosselin) at pH 5.6 in vertical orientation at 23° C. with 16 h of light per day. […]
A custom reoriented macro confocal laser-scanning microscope with a vertical stage was used to acquire images (Bergman-Labora, Sweden). The macro confocal consisted of a horizontally placed AZ100 macroscope (Nikon, Japan) adapted with a specially built XYZ motorized stage (Prior Scientific fitted by Bergman-Labora) and supplied with diascopic white light and episcopic fluorescence light (Nikon). […] Excitation was at 488 nm and emission detected with a 525/50 filter. DII Venus fluorescence intensities from a single layer were normalized to initial intensity, averaged and compared (Standard deviation of the mean). […]

[2] = system: Arabidopsis thaliana seedlings (root apical meristem); assay: Root growth rate of A. thaliana seedlings during OEIP delivery; type: in vivo; conditions: for effect on root growth rate: OEIP delivery, 60 min, compared with non-targeted seedlings
Excerpt: The dPG-based OEIPs were used for in vivo experiments on a highly accessible model plant system suitable for live-cell imaging in the intact organism. Specifically, the apical root meristem and early elongation zone of four-day-old Arabidoposis thaliana seedlings positioned on agar gel were targeted for delivery of IAA via the OEIP. Root tips were monitored using a horizontally oriented Nikon AZ100 spectral macro-confocal laser-scanning microscope system schematically illustrated in FIG. 3a. In this arrangement, seedlings were positioned and imaged vertically.
As a negative control, benzoic acid^15 was delivered by the OEIP device, operated in the same configuration.
To this end, seeds of both genotypes and wild-type Col-0 were surface sterilized with 70% ethanol for 1 min, incubated in pool cleaner (Biltema, Sweden; one tablet per 2000 ml H2O) for 12 min, and washed four times with sterile, distilled water (dH2O). After 3 days at 4° C. in the dark, seeds were plated and grown on ½ Murashige and Skoog (MS) (Duchefa Biochemie, Haarlem, The Netherlands), 0.5 g/L 2-(N-morpholino)ethanesulfonic acid (MES, Sigma-Aldrich), 1% sucrose, 0.7% plant agar (Duchefa) growth medium plates (120×120 mm square petri-dishes; Gosselin) at pH 5.6 in vertical orientation at 23° C. with 16 h of light per day. 12 h prior to the start of the experiments, 4 days post-germination (dpg) seedlings were positioned onto fresh plates of identical MS media composition additionally supplemented with 0.01 M KCl.
Immediately prior to the experiments, the OEIPs were operated in a target solution of 10^−5 M KCl(aq), and the OEIP device tip was kept from drying excessively during sample loading and OEIP positioning. A Keithley 2612b SourceMeter (Keithley Instruments Inc, Cleveland, Ohio, USA) and custom LabVIEW (National Instruments Corporation, Austin, Tex., USA) software was use to source current and record voltage. The OEIP device was turned on immediately prior to the first imaging sequence and operated at a constant electrical current of 1 μA. For these experiments, the OEIP delivery tip was submerged in the MS media in close proximity (100-200 μm) to the root epidermal tissue (FIG. 3b,c) and was held at a fixed position in the growth MS media for the duration of each trial.

[3] = system: DR5rev:GFP auxin-response reporter; assay: DR5rev:GFP fluorescent auxin-response reporter seedlings, OEIP delivery to elongation zone; type: in vivo, Arabidopsis thaliana; conditions: root elongation zone
Excerpt: A custom reoriented macro confocal laser-scanning microscope with a vertical stage was used to acquire images (Bergman-Labora, Sweden). The macro confocal consisted of a horizontally placed AZ100 macroscope (Nikon, Japan) adapted with a specially built XYZ motorized stage (Prior Scientific fitted by Bergman-Labora) and supplied with diascopic white light and episcopic fluorescence light (Nikon). A climate enclosure with passive humidification was designed to surround the stage area to keep plants in a humid, dark environment. The AZ100 macroscope was connected to a C2+ confocal laser scanning system (Nikon) equipped with lasers for 405 nm, 457/488/514 nm and 561 nm excitation and a transmitted light detector. […] Excitation was at 488 nm and emission detected with a 525/50 filter. DII Venus fluorescence intensities from a single layer were normalized to initial intensity, averaged and compared (Standard deviation of the mean). […]

[4] = reported in literature (ref. 13); cited from earlier work

Row | SMILES | onset of strong fluorescence reduction ([1]; DII-Venus seedlings, OEIP delivery) [min] | effect on DII-Venus fluorescence intensity [1] | root growth rate after 60 min of delivery ([2]; OEIP delivery at 1 μA, average of 5 trials, after 60 min) [μm min^−1] | root growth rate before the decrease ([2]; OEIP delivery at 1 μA, average of 5 trials, initial rate) [μm min^−1] | effect on root growth rate [2] | effect on DR5 reporter fluorescent intensity [3] | onset of fluorescence in plant tissues [3] [h] | activity in previous bioassays [4]
1 | O=C(O)Cc1c[nH]c2ccccc12 [IAA, indole-3-acetic acid] | 30 to 60 | strong and significant decrease in fluorescence | 2.4±0.7 | 4.7±1.0 | rapid decrease in growth rate | signal continued to increase between 2 and 3 hours | 1 | 
2 | O=C(O)c1ccccc1 [benzoic acid] |  | preserved their fluorescence |  |  | maintained their growth rates | did not display alterations in fluorescent intensity |  | 
3 | O=C(O)CC1C(=O)Nc2ccccc21 (centres unmarked) [oxIAA, 2-oxindole-3-acetic acid] |  |  |  |  |  |  |  | inactive
